Here are results for 4 molecules from paper PMC11940194, “Synthesis, Antiproliferative Activity, and ADME Profiling of Novel Racemic and Optically Pure Aryl-Substituted Purines and Purine Bioisosteres” (Biomolecules, 2025).

Like-named read-outs stand apart in the source and are kept apart here.

As usually defined, the IC50 is the concentration at which inhibition is half-maximal. As a reminder, the Papp A→B is how fast a substance crosses the layer from the apical side. A word on the Papp B→A: it is the apparent permeability from the basolateral to the apical side of a cell layer. Usually efflux ratio stands for a quotient of directional permeabilities that is used to spot active efflux.

For series [1], the system named is normal skin fibroblasts (HFF-1). Set-up: method as in PMID 29271659. The settings on record: toxicity to normal cells; read-out: IC50 normal cells of analog without linker; cited from earlier work.
A short description of series [2]: Hydrolytic stability in aqueous buffer (UV/Vis). Format: physicochemical. The note with it: phosphate buffer/DMSO 99:1, pH 7.4, 1 × 10⁻⁴ mol dm⁻³, UV/Vis spectra over 24 h. The text has this:
Solvents and chemicals, including starting purines and purine bioisosters 1–5, as well as para-substituted 2-phenyloxiranes 11–15 and phenacyl bromide 21–25, were purchased from Sigma-Aldrich (St. Louis, MO, USA), Alfa Aesar (Haverhill, MA, USA), and Fisher Scientific International (Pittsburgh, PA, USA). The progress of all reactions was monitored by thin layer chromatography on pre-coated Merck (Darmstadt, Germany) silica gel plates 60F254. The synthesized compounds were purified via column chromatography using Fluka (Buchs, Switzerland) silica gel (0.063−0.2 mm) and the appropriate solvent. All NMR spectra were recorded using a Bruker 300, 400, and 600 MHz NMR spectrometer (Bruker Biospin, Rheinstetten, Germany) in deuterated DMSO solutions, with TMS as the internal standard. The melting points of all newly synthesized compounds were determined using a Koffler (Reichert, Vienna) hot stage microscope. The ^1H (δ/ppm) and ^13C NMR (δ/ppm) spectra of compounds 26a,b–49a,b can be found in the Supporting Information (Figures S1–S48). The purity of all newly synthesized compounds was determined by elemental analysis and the elemental analysis results are within 0.5% of the theoretical values. The UV/Vis absorption spectra of compounds 40a, 45a, and 49b were measured at a concentration of 1 × 10⁻⁴ mol dm⁻³ in phosphate buffer and DMSO (99:1, v/v) at pH 7.4 using a Varian Cary 50 spectrophotometer in double-beam mode at 25 °C.
Selected 6-chloropurine (40a), 4-chloropyrrolo[2,3-d]pyrimidine (45a), and 4-chloroimidazo[4,5-c]pyridine (49b) with significant antiproliferative activity were examined for hydrolytic stability in an aqueous buffer solution.
2. UV/Vis absorption spectra of selected compounds
Figure S49. UV/Vis absorption spectra of compounds 40a (a), 45a (b), and 49b (c) recorded in phosphate buffer with 1% DMSO (99:1, v/v) at pH 7.4 (c = 1 × 10⁻⁴ mol dm⁻³). Spectra were measured immediately after sample preparation and after 24 hours to evaluate spectral stability over time.
(1 picture or pasted object on this page, not shown here)

Series [3] concerns normal skin fibroblasts (HFF-1). The series is described as follows: Cytotoxicity MTT assay, normal skin fibroblasts. The series is classed as cell-based, human. The settings on record: Homo sapiens, HFF-1, 72 h, 72 h incubation, mean ± SD. The method, boiled down:
(§1)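 Seeding density followed doubling time: 3000 cells per well for the cancer lines, 5000 for normal fibroblasts. Test substances, freshly diluted from 0.01 to 100 µM, were incubated with the cells for 72 h before MTT measurement of growth rate. IC50 values came from linear regression of dose–response curves.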
(In general: Formazan colour is commonly taken as a measure of viable cells.)

The test system of series [4] is hepatocellular carcinoma (HepG2) cells. The experiment in a line: Antiproliferative MTT assay, HepG2. Format: cell-based, human. The settings on record: for IC50: Homo sapiens, HepG2, 72 h, 72 h incubation, MTT, mean ± SD. The method, boiled down:
as §1

In series [5] the test system is MDCKII-MDR1 cells (P-glycoprotein). The experiment in a line: MDCKII-MDR1 permeability assay. Format: in vitro ADME, canine cells with over-expressed human MDR1 gene. The settings on record: permeability class. The method, boiled down:
(§2)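 Bidirectional transport across MDCKII cells overexpressing human MDR1, compounds 10 µM (1% DMSO) for 60 min at 37 °C, with and without 2 µM elacridar. Monolayer integrity checked by Lucifer yellow; compound concentrations quantified by LC-MS/MS (MRM).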

Series [6] deals with P-glycoprotein (human MDR1). The series is described as follows: MDCKII-MDR1 permeability assay. Format: in vitro ADME, canine cells with over-expressed human MDR1 gene. The settings on record: dog, MDCK-MDR1. The method, boiled down:
as §2

Series [7] has as its system breast adenocarcinoma (MCF7) cells. The series is described as follows: Antiproliferative MTT assay, MCF-7. The note with it: Homo sapiens, MCF7; 72 h incubation, MTT; mean ± SD. Format: cell-based, human. The procedure, abridged:
as §1

In series [8] the test system is colorectal carcinoma (HT-29) cells. The experiment in a line: Antiproliferative MTT assay, HT-29. The series is classed as cell-based, human. The settings on record: for IC50: Homo sapiens, HT-29, 72 h, 72 h incubation, MTT, mean ± SD. The method, boiled down:
as §1

Series [9] concerns MCF-7, CFPAC-1, HT-29, HepG2 tumor cell lines and HFF-1 fibroblasts. The series is described as follows: Antiproliferative activity, whole cell line panel. Format: cell-based, human. The note with it: tested cell lines. The protocol:
The human ATCC tumor cell lines breast adenocarcinoma (MCF7), colorectal carcinoma (HT-29), pancreatic ductal adenocarcinoma (CFPAC-1), hepatocellular carcinoma (HepG2), and normal skin fibroblasts (HFF) derived from ATCC (American Type Culture Collection) were cultured in Dulbecco’s Modified Eagle Medium (DMEM) or Minimum Essential Medium (MEM) supplemented with 10% fetal bovine serum (FBS), 2 mM L-glutamine, 100 U/mL penicillin, and 100 µg/mL streptomycin (Lonza, Basel, Switzerland) in a humidified atmosphere with 5% CO2 at 37 °C. For the experiment, carcinoma cell lines and normal human cell lines were seeded in 96-well microtiter plates at a density of 3000 cells per well and 5000 cells per well, respectively, depending on the doubling time of the specific cell line. The test substances were then added at fivefold, tenfold dilutions (0.01 to 100 µM), freshly prepared in the growth medium on the day of testing, and incubated for a further 72 h. After 72 h of incubation, the growth rate of the cells was determined using the MTT assay according to the manufacturer’s guidelines. […] The IC50 values were calculated from the dose–response curves using linear regression analysis. The experiment was performed in tetraplicates in two individual experiments.
Newly synthesized compounds were evaluated for their cytotoxic activity in vitro against four human cancer cell lines, including human breast adenocarcinoma (MCF-7), ductal pancreatic adenocarcinoma (CFPAC-1), colorectal carcinoma (HT-29), and hepatocellular carcinoma (HepG2), as well as on non-cancerous skin fibroblasts (HFF-1), to check for non-specific toxicity. Furthermore, 5-Fluorouracil (5-FU) was used as a reference drug. The results are expressed as 50% inhibitory concentration (IC50) values and are listed in Table 2, Table 3, Table 4 and Table 5.

The test system of series [10] is pancreatic ductal adenocarcinoma (CFPAC-1) cells. The experiment in a line: Antiproliferative MTT assay, CFPAC-1. Format: cell-based, human. The note with it: Homo sapiens, CFPAC-1, 72 h, 72 h incubation, MTT; mean ± SD. The procedure, abridged: as §1

In the case of `FC(F)(F)c1ccc(-n2cc(Cn3cnc4c(Cl)ncnc43)nn2)cc1`, the 50% inhibitory concentration (IC50) in series [1] was 0.75 µM.

With `OCC(c1ccc(C(F)(F)F)cc1)n1cc(Cn2cnc3c(Cl)ncnc32)nn1` (stereo not drawn) [Compound 40a, 6-Chloro-9-((1-(2-hydroxy-1-(4-(trifluoromethyl)phenyl)ethyl)-1H-1,2,3-triazol-4-yl)methyl)-9H-purine], the hydrolytic stability entry in [2] is given as “hydrolytically stable”. The IC50 turned out to be 18 ± 0.6 µM in series [3], 19 ± 4.3 µM in series [7] and 0.69 ± 0.01 µM in [8]. Also, the “SI (HepG2)” value in series [4] (SI = [IC50 HFF]/[IC50 HepG2]) was 28.1. For the same molecule, the Permeability entry in series [5] is on record as “MODERATE”. In addition, in [6] (10 µM, 60 min, 37 °C), the apical-to-basolateral permeability (Papp A→B) at 60 min, 10 µM was 2.1 ×10⁻⁶ cm/s. This molecule registered a basolateral-to-apical permeability (Papp B→A) at 60 min, 10 µM in [6] (10 µM, 60 min, 37 °C) of 60.6 ×10⁻⁶ cm/s. Moreover, the efflux ratio at 60 min, 10 µM in [6] (<2 no efflux, >2 active efflux) was 29.5. Also, the “SI (HT-29)” value in series [8] (SI = [IC50 HFF]/[IC50 HT-29]) came out at 26.1. The “antiproliferative activity (in words)” value in series [9] is listed as “submicromolar antiproliferative activity”.

`OCC(c1ccccc1)n1cc(Cn2cnc3c(Cl)nccc32)nn1` (stereo not drawn) [Compound 46a, 4-Chloro-1-((1-(2-hydroxy-1-phenylethyl)-1H-1,2,3-triazol-4-yl)methyl)-1H-imidazo[4,5-c]pyridine]: the concentration for half-maximal inhibition (IC50) in series [10], in series [3], in [4], in [7] and in [8] was over 100 µM throughout. In [9], the “antiproliferative activity (in words)” value is reported as “deprived of any activity”.

As to `OC(Cn1cc(Cn2cnc3c(Cl)nccc32)nn1)c1ccccc1` (stereo not drawn) [Compound 46b, 4-Chloro-1-((1-(2-hydroxy-2-phenylethyl)-1H-1,2,3-triazol-4-yl)methyl)-1H-imidazo[4,5-c]pyridine], the IC50 in series [10], in [3], in [4], in series [7] and in series [8] was over 100 µM in each case. Moreover, in series [9], the “antiproliferative activity (in words)” value is “deprived of any activity”.
